Laboratory results as given in patent publication US20210261512A1, “NOVEL COMPOUNDS” (INFLAZOME LIMITED, priority 2018, published 2021).

Tests used:
NLRP3 [1] = molecular target: T1, NLRP3 (Homo sapiens, UniProt Q96P20); assay: THP-1 cells pyroptosis assay; format: cell-based; design: Seed THP-1 cells (25,000 cells/well) containing 1.0 μg/ml LPS; host or cells: THP-1; conditions: LPS 1.0 μg/ml, nigericin 5 μM, resazurin readout, 10 μM top dose (Example 2: top dose of 30 μM)
Summary of the method: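 THP-1 cells (25,000/well) primed with 1 μg/ml LPS in serum-free RPMI, treated with compound (8-point dilution, 10 μM top unless stated; 0.1% DMSO) 3 h at 37°C, then nigericin 5 μM 1 h. Viability read by resazurin (100 μM, 1-2 h) fluorescence; IC50 from 4-parameter fit.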

NLRP3 [2] = molecular target: T1, NLRP3; assay: Human whole blood IL1β release assay; format: cell-based; conditions: LPS 1 μg/ml, nigericin 10 μM, IL-1β AlphaLisa, 10 μM top dose (Example 2: top dose of 30 μM), read-out: HWB IC50
Protocol: For systemic delivery, the ability to inhibit NLRP3 when the compounds are present within the bloodstream is of great importance. For this reason, the NLRP3 inhibitory activity of a number of compounds in human whole blood was investigated in accordance with the following protocol.
Human whole blood in sodium-heparin or lithium-heparin tubes was obtained from healthy donors from a volunteer donor panel. • 1. Plate out 80 μl of whole blood containing 1 μg/ml of LPS in 96-well, clear bottom cell culture plate (Corning #3585) • 2. Add 10 μl compound (8 points half-log dilution with 10 μM top dose, unless stated otherwise) or vehicle (DMSO 0.1% FAC) to the appropriate wells • 3. Incubate for 3 hrs at 37° C., 5% CO2 • 4. Add 10 μl nigericin (Sigma #N7143) (10 μM FAC) to all wells • 5. Incubate for 1 hr at 37° C., 5% CO2 • 6. At the end of the incubation period, spin plates at 300×g for 5 mins to pellet cells and remove 20 μl of supernatant and add to 96-well v-bottom plates for IL-1β analysis (note: these plates containing the supernatants can be stored at −80° C. to be analysed at a later date) • 7. IL-1β was measured according to the manufacturer protocol (Perkin Elmer-AlphaLisa IL-1 Kit AL220F-5000) • 8. IC50 data is fitted to a non-linear regression equation (log inhibitor vs response-variable slope 4-parameters)

T1 sequence (Q96P20 whole entry): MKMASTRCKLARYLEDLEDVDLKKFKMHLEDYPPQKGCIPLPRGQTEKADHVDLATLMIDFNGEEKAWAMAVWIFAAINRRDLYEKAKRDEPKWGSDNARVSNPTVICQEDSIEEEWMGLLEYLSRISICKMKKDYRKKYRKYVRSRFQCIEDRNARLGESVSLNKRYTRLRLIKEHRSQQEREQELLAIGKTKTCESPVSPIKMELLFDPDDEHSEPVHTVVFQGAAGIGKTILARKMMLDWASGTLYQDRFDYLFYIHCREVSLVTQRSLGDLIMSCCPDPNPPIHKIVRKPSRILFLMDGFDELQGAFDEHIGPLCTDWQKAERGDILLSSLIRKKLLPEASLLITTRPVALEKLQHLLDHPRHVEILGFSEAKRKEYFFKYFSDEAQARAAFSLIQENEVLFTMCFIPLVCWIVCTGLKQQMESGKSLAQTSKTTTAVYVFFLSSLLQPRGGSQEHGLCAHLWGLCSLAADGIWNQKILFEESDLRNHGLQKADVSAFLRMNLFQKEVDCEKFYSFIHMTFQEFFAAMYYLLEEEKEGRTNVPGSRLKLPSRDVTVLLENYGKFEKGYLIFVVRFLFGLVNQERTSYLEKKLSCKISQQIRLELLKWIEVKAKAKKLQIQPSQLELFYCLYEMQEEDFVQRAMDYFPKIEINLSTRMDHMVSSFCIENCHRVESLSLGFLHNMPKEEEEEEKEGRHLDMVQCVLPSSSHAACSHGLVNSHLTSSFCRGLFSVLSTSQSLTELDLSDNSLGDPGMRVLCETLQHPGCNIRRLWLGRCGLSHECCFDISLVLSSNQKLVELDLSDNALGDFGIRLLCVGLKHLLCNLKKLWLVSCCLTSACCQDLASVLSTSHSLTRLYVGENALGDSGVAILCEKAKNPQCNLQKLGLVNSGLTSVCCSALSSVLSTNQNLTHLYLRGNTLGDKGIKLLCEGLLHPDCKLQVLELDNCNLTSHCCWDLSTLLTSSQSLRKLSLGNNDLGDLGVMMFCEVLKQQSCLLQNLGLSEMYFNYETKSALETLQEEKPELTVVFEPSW

IC50 (NLRP3 [1])	IC50 (NLRP3 [2])	SMILES
≤ 500 nM	≤ 1000 nM	CN(C)C1CCN(S(=O)(=O)c2nnc(Nc3c(-c4ccncc4)ccc4c3CCC4)[nH]2)CC1 [Example 219, N,N-dimethyl-1-((5-((5-(pyridin-4-yl)-2,3-dihydro-1H-inden-4-yl)amino)-4H-1,2,4-triazol-3-yl)sulfonyl)piperidin-4-amine]
≤ 500 nM	≤ 5000 nM	CC(C)(O)[C@H]1CCN(S(=O)(=O)c2nnc(Nc3c4c(cc5c3CCC5)CCC4)[nH]2)C1 [Example 233, (S)-2-(1-((5-((1,2,3,5,6,7-hexahydro-s-indacen-4-yl)amino)-4H-1,2,4-triazol-3-yl)sulfonyl)pyrrolidin-3-yl)propan-2-ol]
≤ 5000 nM	≤ 5000 nM	CC1(O)CCN(S(=O)(=O)c2nnc(Nc3c4c(cc5c3CCC5)CCC4)[nH]2)CC1 [Example 292, 1-((5-((1,2,3,5,6,7-hexahydro-s-indacen-4-yl)amino)-4H-1,2,4-triazol-3-yl)sulfonyl)-4-methylpiperidin-4-ol]
≤ 500 nM	≤ 1000 nM	CCN(CC)CCCNS(=O)(=O)c1nnc(Nc2c3c(cc4c2CCC4)CCC3)[nH]1 [Example 109, N-(3-(diethylamino)propyl)-5-((1,2,3,5,6,7-hexahydro-s-indacen-4-yl)amino)-4H-1,2,4-triazole-3-sulfonamide]
≤ 500 nM	≤ 10000 nM	COc1cc(-c2c(C)cc3c(c2Nc2nnc(S(=O)(=O)c4ccccc4)[nH]2)CCC3)ccn1 [Example 319, N-(5-(2-methoxypyridin-4-yl)-6-methyl-2,3-dihydro-1H-inden-4-yl)-5-(phenylsulfonyl)-4H-1,2,4-triazol-3-amine]
≤ 500 nM	≤ 10000 nM	NC(=O)c1cccc(S(=O)(=O)c2nnc(Nc3c4c(cc5c3CCC5)CCC4)[nH]2)c1 [Example 341, 3-((5-((1,2,3,5,6,7-hexahydro-s-indacen-4-yl)amino)-4H-1,2,4-triazol-3-yl)sulfonyl)benzamide]
≤ 500 nM	≤ 5000 nM	O=S(=O)(c1nnc(Nc2c3c(cc4c2CCC4)CCC3)[nH]1)N1CC(N2CCCC2)C1 [Example 136, N-(1,2,3,5,6,7-hexahydro-s-indacen-4-yl)-5-((3-(pyrrolidin-1-yl)azetidin-1-yl)sulfonyl)-4H-1,2,4-triazol-3-amine]
≤ 500 nM	≤ 1000 nM	CN(C)C1CCN(S(=O)(=O)c2nnc(Nc3c4c(c(F)c5c3CCC5)CCC4)[nH]2)CC1 [Example 224, 1-((5-((8-fluoro-1,2,3,5,6,7-hexahydro-s-indacen-4-yl)amino)-4H-1,2,4-triazol-3-yl)sulfonyl)-N,N-dimethylpiperidin-4-amine]
≤ 1000 nM	≤ 5000 nM	O=S(=O)(c1nnc(Nc2c3c(cc4c2CCC4)CCC3)[nH]1)N1CCC2(CCCN2C2CC2)CC1 [Example 246, 5-((1-cyclopropyl-1,8-diazaspiro[4.5]decan-8-yl)sulfonyl)-N-(1,2,3,5,6,7-hexahydro-s-indacen-4-yl)-4H-1,2,4-triazol-3-amine]
≤ 1000 nM	≤ 5000 nM	CN(C)CC1CN(S(=O)(=O)c2nnc(Nc3c4c(cc5c3CCC5)CCC4)[nH]2)CCO1 (stereo not drawn) [Example 149, 5-((2-((dimethylamino)methyl)morpholino)sulfonyl)-N-(1,2,3,5,6,7-hexahydro-s-indacen-4-yl)-4H-1,2,4-triazol-3-amine]
≤ 500 nM	≤ 500 nM	CN1CC2(C1)CN(S(=O)(=O)c1nnc(Nc3c4c(cc5c3CCC5)CCC4)[nH]1)C2 [Example 137, N-(1,2,3,5,6,7-hexahydro-s-indacen-4-yl)-5-((6-methyl-2,6-diazaspiro[3.3]heptan-2-yl)sulfonyl)-4H-1,2,4-triazol-3-amine]
≤ 500 nM	≤ 5000 nM	Cc1cc2c(c(Nc3nnc(S(=O)(=O)c4ccccc4)[nH]3)c1-c1ccnc(OC3CCN(C)CC3)c1)CCC2 [Example 318, N-(6-methyl-5-(2-((1-methylpiperidin-4-yl)oxy)pyridin-4-yl)-2,3-dihydro-1H-inden-4-yl)-5-(phenylsulfonyl)-4H-1,2,4-triazol-3-amine]
≤ 1000 nM	≤ 5000 nM	Cc1cc2c(c(Nc3nnc(S(C)(=O)=O)[nH]3)c1-c1ccnc(OC3CCN(C)CC3)c1)CCC2 [Example 317, N-(6-methyl-5-(2-((1-methylpiperidin-4-yl)oxy)pyridin-4-yl)-2,3-dihydro-1H-inden-4-yl)-5-(methylsulfonyl)-4H-1,2,4-triazol-3-amine]
≤ 1000 nM	≤ 5000 nM	O=S(=O)(NCCCN1CCCC1)c1nnc(Nc2c3c(cc4c2CCC4)CCC3)[nH]1 [Example 126, 5-((1,2,3,5,6,7-hexahydro-s-indacen-4-yl)amino)-N-(3-(pyrrolidin-1-yl)propyl)-4H-1,2,4-triazole-3-sulfonamide]
≤ 500 nM	≤ 1000 nM	CN1CCOC2(C1)CN(S(=O)(=O)c1nnc(Nc3c4c(cc5c3CCC5)CCC4)[nH]1)C2 [Example 295, N-(1,2,3,5,6,7-hexahydro-s-indacen-4-yl)-5-((8-methyl-5-oxa-2,8-diazaspiro[3-5]nonan-2-yl)sulfonyl)-4H-1,2,4-triazol-3-amine]
≤ 5000 nM	≤ 5000 nM	CC(CNS(=O)(=O)c1nnc(Nc2c3c(cc4c2CCC4)CCC3)[nH]1)N(C)C (stereo not drawn) [Example 290, N-(2-(dimethylamino)propyl)-5-((1,2,3,5,6,7-hexahydro-s-indacen-4-yl)amino)-4H-1,2,4-triazole-3-sulfonamide]
≤ 500 nM	≤ 5000 nM	Cc1cc2c(c(Nc3nnc(S(=O)(=O)c4ccccc4)[nH]3)c1-c1ccnc(OC3CCOCC3)c1)CCC2 [Example 370, N-(6-methyl-5-(2-((tetrahydro-2H-pyran-4-yl)oxy)pyridin-4-yl)-2,3-dihydro-1H-inden-4-yl)-5-(phenylsulfonyl)-4H-1,2,4-triazol-3-amine]
≤ 1000 nM	≤ 5000 nM	COc1cc(-c2cc(C#N)c3c(c2Nc2nnc(S(=O)(=O)c4ccccc4)[nH]2)CCC3)ccn1 [Example 192, 6-(2-methoxypyridin-4-yl)-7-((5-(phenylsulfonyl)-4H-1,2,4-triazol-3-yl)amino)-2,3-dihydro-1H-indene-4-carbonitrile]
≤ 500 nM	≤ 5000 nM	CN(C)CCn1ccc(S(=O)(=O)c2nnc(Nc3c4c(cc5c3CCC5)CCC4)[nH]2)n1 [Example 349, 5-((1-(2-(dimethylamino)ethyl)-1H-pyrazol-3-yl)sulfonyl)-N-(1,2,3,5,6,7-hexahydro-s-indacen-4-yl)-4H-1,2,4-triazol-3-amine]
≤ 5000 nM	≤ 5000 nM	CN(C1CNC1)S(=O)(=O)c1nnc(Nc2c3c(cc4c2CCC4)CCC3)[nH]1 [Example 120, N-(azetidin-3-yl)-5-((1,2,3,5,6,7-hexahydro-s-indacen-4-yl)amino)-N-methyl-4H-1,2,4-triazole-3-sulfonamide]
≤ 500 nM	≤ 1000 nM	CN1CCC12CCN(S(=O)(=O)c1nnc(Nc3c(-c4ccnc(OC(F)F)c4)ccc4c3CCO4)[nH]1)CC2 [Example 202, N-(5-(2-(difluoromethoxy)pyridin-4-yl)-2,3-dihydrobenzofuran-4-yl)-5-((1-methyl-1,7-diazaspiro[3.5]nonan-7-yl)sulfonyl)-4H-1,2,4-triazol-3-amine]
